# Experimental data: publication PMC7434514 (ChemMedChem, 2020)
# “And” between values parts separate entries of the source, which are not always exact repeats. Identical values can stand only once.
# Biological target: T1, NDM-1 (Klebsiella pneumoniae, UniProt C7C422)
# Test: biochemical
# Conditions: not given
# Target sequence in this assay (C7C422 36-270): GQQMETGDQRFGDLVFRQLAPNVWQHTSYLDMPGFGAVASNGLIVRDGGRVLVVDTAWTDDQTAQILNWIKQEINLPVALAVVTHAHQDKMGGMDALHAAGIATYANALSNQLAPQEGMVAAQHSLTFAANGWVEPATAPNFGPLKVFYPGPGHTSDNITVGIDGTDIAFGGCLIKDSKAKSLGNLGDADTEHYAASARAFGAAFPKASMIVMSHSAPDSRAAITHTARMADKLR
row,SMILES,Ki
1,"O=C(O)CN(CCc1ccco1)CC(=O)O [Compound 23f, 2,2’-((2-(Furan-2-yl)ethyl)azanediyl)diacetic acid]",2600 nM

# Same assay, conditions: compound at 200 μM; meropenem substrate
row,SMILES,Percent Inhibition against NDM-1
1,CN(CC(=O)O)CC(=O)O [Compound 1],80%

# Same assay, conditions: compound at 250 μM; meropenem substrate
row,SMILES,Percent Inhibition against NDM-1
1,CN(CC(=O)O)CC(=O)O [Compound 1],90%
2,O=C(O)CN(CC(=O)O)Cc1ccccc1 [Compound 11],65%
3,"CN(CCC(=O)O)CC(=O)O [Compound 13a, 3-((Carboxymethyl)(methyl)amino)propanoic acid]",complete loss of activity
4,"O=C(O)CCN(CC(=O)O)Cc1ccccc1 [Compound 13b, 3-(Benzyl(carboxymethyl)amino)propanoic acid]",complete loss of activity
5,"O=C(O)CN(CCP(=O)(O)O)Cc1ccccc1 [Compound 15, N-Benzyl-N-(2-phosphonoethyl)glycine]",no inhibition
6,"O=C(O)CN(Cc1ccccc1)Cc1nnn[nH]1 [Compound 17, N-((1H-tetrazol-5-yl)methyl)-N-benzylglycine]",comparable to that of 11
7,"O=C(O)CN(CC(=O)O)S(=O)(=O)c1ccccc1 [Compound 21j, 2,2’-((Phenylsulfonyl)azanediyl)diacetic acid]",complete loss of activity
8,"O=C(O)CN(CC(=O)O)S(=O)(=O)Cc1ccccc1 [Compound 21k, 2,2’-((Benzylsulfonyl)azanediyl)diacetic acid]",complete loss of activity
9,"O=C(O)CN(CC(=O)O)S(=O)(=O)c1cccs1 [Compound 21l, 2,2’-((Thiophen-2-ylsulfonyl)azanediyl)diacetic acid]",~ 20%
10,"O=C(O)CN(CC(=O)O)S(=O)(=O)c1cc2ccccc2s1 [Compound 21m, 2,2’-((Benzo[b]thiophen-2-ylsulfonyl)azanediyl)diacetic acid]",~ 20%

# Same assay, conditions: ethyl-linker (23f) versus methyl-linker (23b)
row,SMILES,fold improvement in inhibitory activity
1,"O=C(O)CN(CCc1ccco1)CC(=O)O [Compound 23f, 2,2’-((2-(Furan-2-yl)ethyl)azanediyl)diacetic acid]",2.5 fold

# Same assay, conditions: read-out: Percent Inhibition against NDM-1
SMILES,inhibition at 250 µM,inhibition at 200 µM
"O=C(O)CN(CCc1ccccc1)CC(=O)O [Compound 21a, 2,2’-(Phenethylazanediyl)diacetic acid]",56 to 76%,–
"O=C(O)CN(CC(=O)O)Cc1ccc(-c2ccccc2)cc1 [Compound 21b, 2,2’-(([1,1’-Biphenyl]-4-ylmethyl)azanediyl)diacetic acid]",56 to 76%,–
"O=C(O)CN(CC(=O)O)Cc1cccc(-c2ccccc2)c1 [Compound 21c, 2,2’-(([1,1’-Biphenyl]-3-ylmethyl)azanediyl)diacetic acid]",56 to 76%,–
"O=C(O)CN(CC(=O)O)Cc1ccsc1 [Compound 21h, 2,2’-((Thiophen-3-ylmethyl)azanediyl)diacetic acid]",64%,–
"O=C(O)CN(CC(=O)O)Cc1ccoc1 [Compound 21i, 2,2’-((Furan-3-ylmethyl)azanediyl)diacetic acid]",~99%,–
"O=C(O)CNCC(=O)O [IDA, Iminodiacetic acid]",–,48%

# Biological target: T1, NDM-1
# Test: not given
# Type: binding
# Conditions: 5 μM NDM-1, 200 μM inhibitor; native NDM-1 TM = 55.95±0.06 °C
# Target sequence in this assay (C7C422 29-270, looked up): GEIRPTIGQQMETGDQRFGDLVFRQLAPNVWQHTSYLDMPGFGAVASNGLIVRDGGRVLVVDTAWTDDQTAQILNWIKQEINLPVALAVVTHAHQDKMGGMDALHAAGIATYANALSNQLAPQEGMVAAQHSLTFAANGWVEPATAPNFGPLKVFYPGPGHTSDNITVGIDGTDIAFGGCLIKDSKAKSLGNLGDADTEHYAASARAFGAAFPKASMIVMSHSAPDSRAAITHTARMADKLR
row,SMILES,∆Tm
1,CN(CC(=O)O)CC(=O)O [Compound 1],1.9±0.2 °C
2,"O=C(O)CN(CC(=O)O)Cc1ccoc1 [Compound 21i, 2,2’-((Furan-3-ylmethyl)azanediyl)diacetic acid]",3.4±0.3 °C
3,"O=C(O)CN(CC(=O)O)Cc1cccs1 [Compound 23a, 2,2’-((Thiophen-2-ylmethyl)azanediyl)diacetic acid]",3.1±0.1 °C
4,"O=C(O)CN(CC(=O)O)Cc1ccco1 [Compound 23b, 2,2’-((Furan-2-ylmethyl)azanediyl)diacetic acid]",1.6±0.4 °C
5,"Cc1ccc(CN(CC(=O)O)CC(=O)O)o1 [Compound 23d, 2,2’-(((5-Methylfuran-2-yl)methyl)azanediyl)diacetic acid]",3.4±0.2 °C
6,"O=C(O)CN(CCc1cccs1)CC(=O)O [Compound 23e, 2,2’-((2-(Thiophen-2-yl)ethyl)azanediyl)diacetic acid]",1.7±0.2 °C
7,"O=C(O)CN(CCc1ccco1)CC(=O)O [Compound 23f, 2,2’-((2-(Furan-2-yl)ethyl)azanediyl)diacetic acid]",1.5±0.1 °C
8,"O=C(O)CN(CC(=O)O)Cc1ccc(Br)s1 [Compound 23g, 2,2’-(((5-Bromothiophen-2-yl)methyl)azanediyl)diacetic acid]",3.0±0.3 °C
9,"O=C(O)c1cccc(C(=O)O)n1 [DPA, dipicolinic acid, reference compound]",−14.5±0.2 °C

# Biological target: T1, NDM-1
# Test: not given
# Type: binding
# Conditions: NDM-1 10 μM, inhibitor 50 μM, approximately 5 min incubation
# Target sequence in this assay (C7C422 37-270 limits assumed): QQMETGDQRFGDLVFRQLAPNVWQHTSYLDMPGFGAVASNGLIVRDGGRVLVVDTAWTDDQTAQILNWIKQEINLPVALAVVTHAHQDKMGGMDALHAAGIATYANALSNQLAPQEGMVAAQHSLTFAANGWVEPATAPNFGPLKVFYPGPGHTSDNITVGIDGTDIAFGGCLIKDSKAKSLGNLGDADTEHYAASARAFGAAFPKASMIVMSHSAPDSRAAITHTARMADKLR
row,SMILES,Complex observed by native ESI-MS
1,CN(CC(=O)O)CC(=O)O [Compound 1],2Zn: NDM-1:1
2,"Cc1ccc(CN(CC(=O)O)CC(=O)O)s1 [Compound 23c, 2,2’-(((5-Methylthiophen-2-yl)methyl)azanediyl)diacetic acid]",2Zn: NDM-1:23c
3,"Cc1ccc(CN(CC(=O)O)CC(=O)O)o1 [Compound 23d, 2,2’-(((5-Methylfuran-2-yl)methyl)azanediyl)diacetic acid]",2Zn: NDM-1:23d
4,"O=C(O)CN(CCc1cccs1)CC(=O)O [Compound 23e, 2,2’-((2-(Thiophen-2-yl)ethyl)azanediyl)diacetic acid]",2Zn: NDM-1:23e
5,"O=C(O)CN(CCc1ccco1)CC(=O)O [Compound 23f, 2,2’-((2-(Furan-2-yl)ethyl)azanediyl)diacetic acid]",2Zn: NDM-1:23f
6,"O=C(O)c1cccc(C(=O)O)n1 [DPA, dipicolinic acid, reference compound]",0Zn: NDM-1 and 1Zn: NDM-1 and 2Zn: NDM-1
7,"O=C(O)CN(CCN(CC(=O)O)CC(=O)O)CC(=O)O [EDTA, reference compound]",metal free NDM-1

# Biological target: VIM-2 (Escherichia coli, UniProt Q5U7L7)
# Test: not given
# Type: binding
# Conditions: VIM-2 10 μM, inhibitor 50 μM, approximately 5 min incubation
row,SMILES,Complex observed by native ESI-MS
1,CN(CC(=O)O)CC(=O)O [Compound 1],2Zn: VIM-2:1
2,"Cc1ccc(CN(CC(=O)O)CC(=O)O)s1 [Compound 23c, 2,2’-(((5-Methylthiophen-2-yl)methyl)azanediyl)diacetic acid]",2Zn: VIM-2:23c
3,"Cc1ccc(CN(CC(=O)O)CC(=O)O)o1 [Compound 23d, 2,2’-(((5-Methylfuran-2-yl)methyl)azanediyl)diacetic acid]",2Zn: VIM-2:23d
4,"O=C(O)CN(CCc1cccs1)CC(=O)O [Compound 23e, 2,2’-((2-(Thiophen-2-yl)ethyl)azanediyl)diacetic acid]",2Zn: VIM-2:23e
5,"O=C(O)CN(CCc1ccco1)CC(=O)O [Compound 23f, 2,2’-((2-(Furan-2-yl)ethyl)azanediyl)diacetic acid]",2Zn: VIM-2:23f
6,"O=C(O)c1cccc(C(=O)O)n1 [DPA, dipicolinic acid, reference compound]",0Zn: VIM-2:DPA

# Test system: NDM-1
# Test: not given
# Conditions: read-out: IC50 against NDM-1; ref 19e, 20; cited from earlier work
row,SMILES,IC50
1,"N[C@H](CN[C@H](CN[C@@H](CC(=O)O)C(=O)O)C(=O)O)C(=O)O [AMA, Aspergillomarasmine A]",4 to 7 µM

# Biological target: not given
# Test: not given
# Conditions: read-out: Kd for Zn(II) ions; cited from earlier work
row,SMILES,Kd
1,"O=C(O)CNCC(=O)O [IDA, Iminodiacetic acid]",32 µM

# Test system: NDM-1 expressing Klebsiella pneumoniae
# Test: not given
# Conditions: mouse infected with NDM-1 expressing Klebsiella pneumoniae; ref 19e, 20; cited from earlier work
row,SMILES,ability to restore meropenem activity in vivo
1,"N[C@H](CN[C@H](CN[C@@H](CC(=O)O)C(=O)O)C(=O)O)C(=O)O [AMA, Aspergillomarasmine A]",restore meropenem activity
